The target of assay [1] is T1, L-type Ca2+ channel (Rattus norvegicus, UniProt P22002).
T1 construct: A 1 mm-wide ring preparation was prepared from the thoracic aorta; from tissue; host or cells: thoracic aorta ring preparation (endothelium removed) of male Wistar rats
The experiment in a line: K50-induced contraction in a ring preparation of a rat aorta (endothelium removed). Format: cell-based. The following applies: for inhibition at 0.001 µM / inhibition at 0.003 µM / inhibition at 0.01 µM / inhibition at 0.03 µM / inhibition at 0.1 µM / inhibition at 0.3 µM / inhibition at 1 µM / inhibition at 3 µM: read-out: Inhibitory rate (%) on contraction by K50; for Selectivity T-type over L-type calcium channel (in words): conclusion from Examples 1-3 and 7-9; for Action on L-type calcium channel (in words): specimen pre-contracted by K50, up to 3 μM. As to the method:
For the experiment, 7 to 10 week-old male Wistar rats (Japan SLC, Inc., Shizuoka, Japan) were used. These experimental animals were bred in a chamber with a 12-hour light-dark cycle maintained at a temperature of about 24° C. while they were allowed to freely take tap water and a solid feed (Oriental Yeast Co., Ltd., Tokyo, Japan).
The rats were caused to hemorrhage to death by cutting the carotid artery under anesthesia, and the thoracic aorta was extracted. Connective tissues and fat were removed from the thoracic aorta in a cooled modified Kreb's liquid. A 1 mm-wide ring preparation was prepared from the thoracic aorta, and the lumen of the specimen was rubbed with rubber to remove the endothelium.
Two 100 μm tungsten wires were inserted into the lumen of the 1 mm-wide ring preparation, and the ring preparation was transferred to a liquid bath with a volume of 10 mL. […] The other ends of tungsten wires inserted into the lumen of the ring preparation were fixed to a tension transducer, and a change in tension of the specimen was isometrically measured. Signals from the tension transducer passed through a blood pressure amplifier to be recorded by a pen recorder. An initial stretching tension of 1 g was applied in a normal Kreb's liquid, and the specimen was equilibrated for 1 hour, and then caused to contract once by a 10^−6 M phenylephrine solution. This procedure was necessary for obtaining stable results. At the end of the experiment, verapamil (Vera) (10^−5 M) and papaverine (10^−4 M) were added to completely relax the specimen. The level at this time was set to 0 for all the measurements of a change in tension.
The reagents used were as follows. • Normal Kreb's liquid: NaCl (118 mM), KCl (4.7 mM), CaCl2 (2.5 mM), MgCl2 (1.2 mM), NaHCO3 (25 mM), KH2PO4 (1.2 mM) and glucose (10 mM) were diluted with H2O to 1 L, and ventilated for 10 minutes with a mixed gas of 95% of O2 and 5% of CO2, and 2.5 mL of a 1 M CaCl2 solution was then added. • Kreb's liquid (K50): NaCl (73.9 mM), KCl (48.8 mM), CaCl2 (2.5 mM), MgCl2 (1.2 mM), NaHCO3 (25 mM), KH2PO4 (1.2 mM) and glucose (10 mM) were diluted with H2O to 1 L, and ventilated for 10 minutes with a mixed gas of 95% of O2 and 5% of CO2, and 2.5 mL of a 1 M CaCl2 solution was then added. • Acetylcholine hydrochloride (Ach, manufactured by Sigma) • Verapamil hydrochloride (Vera, manufactured by Eisai Co., Ltd. (Tokyo)) • Papaverine hydrochloride (manufactured by Sigma) 5. Results
Thereafter, the specimen was washed three times with the Normal Kreb's liquid, and to the specimen caused to pre-contract by the Kreb's liquid (K50) containing 50 mM potassium ions, 1 μL of 1 μM of sophoraflavanone G (final concentration: 0.001 μM) dissolved in DMSO, 2 μL of 1 μM of the sophoraflavanone G (final concentration: 0.003 μM), 7 μL of 1 μM of the sophoraflavanone G (final concentration: 0.01 μM), 2 μL of 10 μM of the sophoraflavanone G (final concentration: 0.03 μM), 7 μL of 10 μM of the sophoraflavanone G (final concentration: 0.1 μM), 2 μL of 10 μM of the sophoraflavanone G (final concentration: 0.3 μM), 7 μL of 100 μM of the sophoraflavanone G (final concentration: 1 μM) and […] of the sophoraflavanone G (final concentration: 3 μM) were accumulatively added in a liquid bath containing 10 mL of the Kreb's liquid.
Except that 6-prenylnaringenin was used in place of sophoraflavanone G, the same procedure as in Example 7 was carried out to examine effects on an L-type Ca^2+ channel.
Except that 8-prenylnaringenin was used in place of sophoraflavanone G, the same procedure as in Example 7 was carried out to examine effects on an L-type Ca^2+ channel.

Assay [2] deals with human T-type calcium channel (Homo sapiens, UniProt O95180). Put plainly: cell-based. As to the method:
A T-type calcium channel inhibitory action of sophoraflavanone G was measured by a whole-cell patch method using a human renal cell-derived cell line: […] cell forced to express a human T-type calcium channel.
In the whole-cell patch method, a barium current passing as an inward current was measured in a potential jump from −80 mV to −20 mV with the holding potential set to −80 mV using, as an external solution and an internal solution, ones having the compositions shown below. Here, for eliminating influences of a high-threshold-activated-type calcium channel, a value obtained by subtracting from a peak current a current 150 ms after the start of stimulation was used as a T-current for data analysis.
External Solution Composition
Aqueous solution containing the following: 97 mM N-methyl-D-glucamine (NMDG);
10 mM 4-(2-hydroxyethyl)-1-piperazine ethanesulfonic acid (HEPES);
40 mM tetraethylammonium chloride (TEA-Cl); and
Internal Solution Composition
Aqueous solution containing the following:
5 mM glycol ether diamine tetraacetic acid (EGTA)
In FIG. 1, the data are shown as a ratio (%) of a T-current at addition of a compound to a T-current at addition of a solvent (DMSO).
Except that sophoraflavanone G was replaced by 6-prenylnaringenin, the same procedure as in Example 1 was carried out to measure a T-type calcium channel inhibitory action of […].
Except that sophoraflavanone G was replaced by 8-prenylnaringenin, the same procedure as in Example 1 was carried out to measure a T-type calcium channel inhibitory action of […].
These […] values are values calculated by GraphPad Prism® (GraphPad Software, Inc.) using the results of Examples 1 to 3.

Assay [3] concerns NaHS-induced hyperalgesia. Put plainly: Action on NaHS-induced hyperalgesia, up-and-down method using a von Frey filament. It counts as in vivo. The following applies: male ddY mouse; for Action on NaHS-induced hyperalgesia (in words): paw sole administration. As to the method: Into the paw sole of a male ddY mouse, 0.1 nmol/paw (volume: 10 μL/paw) of NaHS (sodium hydrogen sulfide) was administered alone, […], and an action of sophoraflavanone G on NaHS-induced hyperalgesia was measured by an up-and-down method using a von Frey filament.
Here, NaHS (sodium hydrogen sulfide) is used as a H2S donor. H2S is a hyperalgesia-inducing substance which is involved in information transmission of pain through a Cav3.2 T-type calcium channel (see Kawabata A. et al. Hydrogen sulfide as a novel nociceptive messenger. Pain. 2007 November; 132(1-2): 74-81. Epub 2007 Mar. 7.).
Except that 6-prenylnaringenin was used in place of sophoraflavanone G, the same procedure as in Example 4 was carried out to measure an action of 6-prenylnaringenin on NaHS-induced hyperalgesia.
Except that 8-prenylnaringenin was used in place of sophoraflavanone G, the same procedure as in Example 4 was carried out to measure an action of 8-prenylnaringenin on NaHS-induced hyperalgesia.

Where [4] appears, read: 0.001 μM final concentration, accumulatively added, rat aorta ring.
The mark [5] stands for this setting: 0.003 μM final concentration, accumulatively added, rat aorta ring.
Where [6] appears, read: 0.01 μM final concentration, accumulatively added, rat aorta ring.
Where [7] appears, read: 0.03 μM final concentration, accumulatively added, rat aorta ring.
Setting [8] is: 0.1 μM final concentration, accumulatively added, rat aorta ring.
[9] abbreviates: 0.3 μM final concentration, accumulatively added, rat aorta ring.
The mark [10] stands for this setting: 1 μM final concentration, accumulatively added, rat aorta ring.
Where [11] appears, read: 3 μM final concentration, accumulatively added, rat aorta ring.
[12] abbreviates: NaHS 0.1 nmol/paw sole + compound 0.1 nmol/paw sole.
The mark [13] stands for this setting: NaHS 0.1 nmol/paw sole + compound 1 nmol/paw sole.
[14] abbreviates: NaHS 0.1 nmol/paw sole + compound 10 nmol/paw sole.
Where [15] appears, read: HEK293, read-out: Inhibition rate (%).

Each structure is given as a SMILES string. Like-named read-outs stand apart in the source and are kept apart here.

T1 sequence (P22002 whole entry): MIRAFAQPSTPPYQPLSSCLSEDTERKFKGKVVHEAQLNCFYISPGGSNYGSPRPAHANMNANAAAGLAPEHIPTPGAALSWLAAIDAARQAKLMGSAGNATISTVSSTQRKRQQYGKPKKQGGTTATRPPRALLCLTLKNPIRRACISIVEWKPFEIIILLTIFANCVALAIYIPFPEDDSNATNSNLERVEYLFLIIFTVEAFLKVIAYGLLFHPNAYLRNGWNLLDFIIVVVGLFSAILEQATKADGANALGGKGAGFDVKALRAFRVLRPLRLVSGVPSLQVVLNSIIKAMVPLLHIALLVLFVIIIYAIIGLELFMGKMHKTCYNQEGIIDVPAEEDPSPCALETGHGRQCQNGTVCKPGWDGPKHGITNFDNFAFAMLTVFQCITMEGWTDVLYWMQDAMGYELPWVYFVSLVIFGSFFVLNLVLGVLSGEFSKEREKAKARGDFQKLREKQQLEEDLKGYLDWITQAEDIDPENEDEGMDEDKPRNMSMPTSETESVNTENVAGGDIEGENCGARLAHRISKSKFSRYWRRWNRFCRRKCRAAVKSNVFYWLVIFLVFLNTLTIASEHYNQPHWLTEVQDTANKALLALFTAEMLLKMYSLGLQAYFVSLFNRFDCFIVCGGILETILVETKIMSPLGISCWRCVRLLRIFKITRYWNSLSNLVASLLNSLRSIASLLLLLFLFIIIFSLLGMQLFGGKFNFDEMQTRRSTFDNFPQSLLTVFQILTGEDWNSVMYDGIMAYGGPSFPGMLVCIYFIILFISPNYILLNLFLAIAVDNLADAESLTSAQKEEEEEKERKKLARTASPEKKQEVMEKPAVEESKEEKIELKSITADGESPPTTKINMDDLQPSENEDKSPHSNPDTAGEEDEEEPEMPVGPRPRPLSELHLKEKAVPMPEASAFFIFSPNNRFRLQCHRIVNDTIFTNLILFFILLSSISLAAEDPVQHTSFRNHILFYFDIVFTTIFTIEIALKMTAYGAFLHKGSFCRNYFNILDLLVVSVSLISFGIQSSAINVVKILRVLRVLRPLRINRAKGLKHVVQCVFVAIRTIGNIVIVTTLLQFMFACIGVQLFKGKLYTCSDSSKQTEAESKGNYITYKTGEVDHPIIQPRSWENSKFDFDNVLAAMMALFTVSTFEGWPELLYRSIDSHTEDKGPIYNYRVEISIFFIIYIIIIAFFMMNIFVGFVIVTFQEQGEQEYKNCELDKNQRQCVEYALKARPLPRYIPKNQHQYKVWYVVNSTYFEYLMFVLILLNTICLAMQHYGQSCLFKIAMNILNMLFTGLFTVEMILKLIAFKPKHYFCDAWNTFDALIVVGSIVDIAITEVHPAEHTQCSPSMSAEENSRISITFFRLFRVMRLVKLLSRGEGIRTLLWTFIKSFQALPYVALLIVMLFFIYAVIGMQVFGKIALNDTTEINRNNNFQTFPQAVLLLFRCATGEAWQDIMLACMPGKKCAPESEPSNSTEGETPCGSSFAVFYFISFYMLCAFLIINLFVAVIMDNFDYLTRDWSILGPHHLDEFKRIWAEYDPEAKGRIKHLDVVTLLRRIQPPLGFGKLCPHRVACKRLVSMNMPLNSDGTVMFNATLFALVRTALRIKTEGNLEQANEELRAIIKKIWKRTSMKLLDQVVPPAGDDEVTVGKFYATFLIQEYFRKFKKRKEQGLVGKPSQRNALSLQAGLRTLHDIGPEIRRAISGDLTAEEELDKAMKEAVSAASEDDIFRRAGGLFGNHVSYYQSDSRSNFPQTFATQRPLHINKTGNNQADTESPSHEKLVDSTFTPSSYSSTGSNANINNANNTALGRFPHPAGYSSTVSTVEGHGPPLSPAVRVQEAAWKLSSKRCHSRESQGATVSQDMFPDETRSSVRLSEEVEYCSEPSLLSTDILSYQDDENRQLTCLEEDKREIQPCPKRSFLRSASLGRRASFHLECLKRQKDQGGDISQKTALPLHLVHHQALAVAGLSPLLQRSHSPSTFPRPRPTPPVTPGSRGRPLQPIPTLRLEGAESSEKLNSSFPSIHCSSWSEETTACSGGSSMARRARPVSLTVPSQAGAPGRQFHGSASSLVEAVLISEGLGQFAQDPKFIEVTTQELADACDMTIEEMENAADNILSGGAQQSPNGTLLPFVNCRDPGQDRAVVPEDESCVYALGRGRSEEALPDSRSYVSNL
T1 sequence (P54290 25-944 partner limits assumed): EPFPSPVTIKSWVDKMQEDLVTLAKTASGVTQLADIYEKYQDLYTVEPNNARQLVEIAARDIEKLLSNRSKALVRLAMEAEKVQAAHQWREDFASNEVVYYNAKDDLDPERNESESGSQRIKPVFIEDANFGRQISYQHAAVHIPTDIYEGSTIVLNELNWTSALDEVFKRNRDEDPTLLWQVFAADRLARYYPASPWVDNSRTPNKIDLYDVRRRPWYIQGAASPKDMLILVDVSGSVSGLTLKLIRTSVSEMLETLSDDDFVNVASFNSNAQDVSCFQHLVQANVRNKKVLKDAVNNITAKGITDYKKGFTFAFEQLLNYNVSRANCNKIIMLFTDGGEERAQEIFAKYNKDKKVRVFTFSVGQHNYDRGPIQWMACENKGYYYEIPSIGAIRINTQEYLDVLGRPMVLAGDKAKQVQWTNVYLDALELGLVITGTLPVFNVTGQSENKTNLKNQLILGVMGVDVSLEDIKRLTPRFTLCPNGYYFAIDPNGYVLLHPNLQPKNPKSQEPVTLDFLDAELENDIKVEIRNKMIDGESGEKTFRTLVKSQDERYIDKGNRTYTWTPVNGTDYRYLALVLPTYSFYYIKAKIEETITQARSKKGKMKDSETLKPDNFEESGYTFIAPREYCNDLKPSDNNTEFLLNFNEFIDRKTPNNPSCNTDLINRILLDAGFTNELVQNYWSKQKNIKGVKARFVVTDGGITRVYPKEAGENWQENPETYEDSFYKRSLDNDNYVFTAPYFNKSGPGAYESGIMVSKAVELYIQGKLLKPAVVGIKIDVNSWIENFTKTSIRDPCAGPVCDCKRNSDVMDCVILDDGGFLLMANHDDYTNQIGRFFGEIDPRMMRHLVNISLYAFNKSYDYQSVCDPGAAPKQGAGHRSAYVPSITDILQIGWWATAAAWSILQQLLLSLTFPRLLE
T1 sequence (P54290 945-1091 partner limits assumed): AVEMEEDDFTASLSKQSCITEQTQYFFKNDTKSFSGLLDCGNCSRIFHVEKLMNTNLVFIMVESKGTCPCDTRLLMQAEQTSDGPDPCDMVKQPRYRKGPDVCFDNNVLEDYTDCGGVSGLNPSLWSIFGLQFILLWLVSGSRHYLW

On to `CC(C)=CCc1c(O)cc(O)c2c1O[C@H](c1ccc(O)cc1)CC2=O` [8-Prenylnaringenin, (2S)-5,7-dihydroxy-2,3-dihydro-2-(4-hydroxyphenyl)-8-(3-methyl-2-butenyl)-4H-1-benzopyran-4-one], for which the inhibition at 0.001 µM in assay [1] (setting [4]) came out at 0%. For the same molecule, the inhibition at 0.003 µM in assay [1] (setting [5]) was determined as 0%. The inhibition at 0.01 µM in assay [1] (setting [6]) worked out at 7.4%. For the same molecule, in assay [1] (setting [7]), the inhibition at 0.03 µM is 0%. For the same molecule, in assay [1] (setting [8]), the inhibition at 0.1 µM amounted to 11.1%. Moreover, the inhibition at 0.3 µM was found to be 14.8% in assay [1] (setting [9]) and 16.4% in assay [2] (HEK293, compound concentration 300 nM, T-current, HEK 293 cell expressing human T-type calcium channel, read-out: Inhibition rate (%)). Further, the inhibition at 1 µM in assay [1] (setting [10]) is 22.2%; in assay [2] (HEK293, compound concentration 1000 nM, T-current, HEK 293 cell expressing human T-type calcium channel, read-out: Inhibition rate (%)), 64.9%. For the same molecule, the inhibition at 3 µM in assay [1] (setting [11]) is 25.9%; in assay [2] (HEK293, compound concentration 3000 nM, T-current, HEK 293 cell expressing human T-type calcium channel, read-out: Inhibition rate (%)), 91%. Further, the “Selectivity T-type over L-type calcium channel (in words)” value in assay [1] was “T-type calcium channel-specific inhibitor”. In assay [1], the “Action on L-type calcium channel (in words)” value was “does not act on an L-type calcium channel”. Besides, the inhibition at 10 µM in assay [2] (HEK293, compound concentration 10000 nM, T-current, HEK 293 cell expressing human T-type calcium channel, read-out: Inhibition rate (%)) was 99.9%. Moreover, the “Hyperalgesia threshold (g) Average value ± standard error” value in assay [3] (setting [12]) is on record as 0.23 ± 0.04 g; in assay [3] (setting [13]) it was 0.41 ± 0.04 g; in assay [3] (setting [14]), 0.55 ± 0.05 g. The “Action on NaHS-induced hyperalgesia (in words)” value in assay [3] is “inhibits NaHS-induced hyperalgesia”.

For `C=C(C)[C@H](CC=C(C)C)Cc1c(O)cc(O)c2c1O[C@H](c1ccc(O)cc1O)CC2=O` [Sophoraflavanone G, (2S)-5,7-dihydroxy-2,3-dihydro-2-(2,4-dihydroxyphenyl)-8-[(R)-5-methyl-2-(1-methylethenyl)-4-hexenyl]-4H-1-benzopyran-4-one], the inhibition at 0.001 µM in assay [1] (setting [4]) worked out at 0%. Moreover, the inhibition at 0.003 µM in assay [1] (setting [5]) was found to be 0%. Also, the inhibition at 0.01 µM in assay [1] (setting [6]) came to 5.6%. Moreover, in assay [1] (setting [7]), the inhibition at 0.03 µM was 5.6%. The inhibition at 0.1 µM in assay [1] (setting [8]) is 5.6%. The inhibition at 0.3 µM in assay [1] (setting [9]) is 5.6%. Also, the inhibition at 1 µM came out at 11.1% in assay [1] (setting [10]) and 61.1% in assay [2] (setting [15]). Further, the values for the inhibition at 3 µM in assay [1] (setting [11]) and in assay [2] (setting [15]) were 8.3% and 97.7%, respectively. Moreover, in assay [1], the “Selectivity T-type over L-type calcium channel (in words)” value is given as “T-type calcium channel-specific inhibitor”. Besides, the “Action on L-type calcium channel (in words)” value in assay [1] is recorded as “does not act on an L-type calcium channel”. For the same molecule, the inhibition at 0.5 µM in assay [2] (setting [15]) came out at 25.9%. Also, the “Hyperalgesia threshold (g) Average value ± standard error” value in assay [3] (NaHS 0.1 nmol/paw sole + compound 1 pmol/paw sole) is 0.11 ± 0.04 g; in assay [3] (NaHS 0.1 nmol/paw sole + compound 10 pmol/paw sole), 0.35 ± 0.07 g; in assay [3] (NaHS 0.1 nmol/paw sole + compound 30 pmol/paw sole), 0.34 ± 0.10 g. Also, the “Action on NaHS-induced hyperalgesia (in words)” value in assay [3] is reported as “inhibits NaHS-induced hyperalgesia”.

For `CC(C)=CCc1c(O)cc2c(c1O)C(=O)C[C@@H](c1ccc(O)cc1)O2` [6-Prenylnaringenin, (2S)-5,7-dihydroxy-2,3-dihydro-2-(4-hydroxyphenyl)-6-(3-methyl-2-butenyl)-4H-1-benzopyran-4-one], in assay [1], the “Selectivity T-type over L-type calcium channel (in words)” value is reported as “T-type calcium channel-specific inhibitor”, the inhibition at 0.001 µM worked out at 0%, the inhibition at 0.003 µM came out at 0% and the inhibition at 0.01 µM turned out to be 4.1%. Moreover, in assay [1], the inhibition at 0.03 µM came out at 6.1%, the inhibition at 0.1 µM turned out to be 4.1%, the inhibition at 0.3 µM came to 4.1% and the inhibition at 1 µM was 4.1%. In assay [1], the inhibition at 3 µM amounted to 4.1% and the “Action on L-type calcium channel (in words)” value is on record as “does not act on an L-type calcium channel”. In assay [2] (setting [15]), the inhibition at 0.3 µM came out at 0%, the inhibition at 1 µM worked out at 82.7% and the inhibition at 3 µM worked out at 99%. For the same molecule, in assay [3] (setting [12]), the “Hyperalgesia threshold (g) Average value ± standard error” value turned out to be 0.28 ± 0.07 g. The “Hyperalgesia threshold (g) Average value ± standard error” value in assay [3] (setting [13]) was 0.31 ± 0.06 g. Also, in assay [3] (setting [14]), the “Hyperalgesia threshold (g) Average value ± standard error” value was found to be 0.52 ± 0.09 g. For the same molecule, the “Action on NaHS-induced hyperalgesia (in words)” value in assay [3] was “inhibits NaHS-induced hyperalgesia”.

The values above are taken from patent US10633358B2, “T-type calcium channel inhibitor” (KINKI UNIVERSITY, priority 2013, dated 2020).
